Measurements reported in publication PMC5372681, “Study of Different Variants of Mo Enzyme crARC and the Interaction with Its Partners crCytb5-R and crCytb5-1” (International Journal of Molecular Sciences, 2017).

Legend:
Assay type in all cases: biochemical
crARC [1] = target: T1, crARC (Chlamydomonas reinhardtii, UniProt F8UWQ7, R276A); assay: HPLC of adenine formed; details: 0.5 mM HAP, 3 mM dithionite, 2 mM benzylviologen, 100 mM potassium phosphate pH 7.4, 37 °C
T1 construct: gene ARC; N-terminal His6 (pQE80), E. coli TP1000, Ni-NTA

crARC [2] = target: T2, crARC (Chlamydomonas reinhardtii, UniProt F8UWQ7, D182A); assay: HPLC of adenine formed; details: 0.5 mM HAP, 3 mM dithionite, 2 mM benzylviologen, 100 mM potassium phosphate pH 7.4, 37 °C
T2 construct: gene ARC; N-terminal His6 (pQE80), E. coli TP1000, Ni-NTA

crARC [3] = target: T3, crARC (Chlamydomonas reinhardtii, UniProt F8UWQ7, F210A); assay: HPLC of adenine formed; details: 0.5 mM HAP, 3 mM dithionite, 2 mM benzylviologen, 100 mM potassium phosphate pH 7.4, 37 °C
T3 construct: gene ARC; N-terminal His6 (pQE80), E. coli TP1000, Ni-NTA

crARC [4] = target: T4, crARC (Chlamydomonas reinhardtii, UniProt F8UWQ7); assay: HPLC of adenine formed; details: 0.5 mM HAP, 3 mM dithionite, 2 mM benzylviologen, 100 mM potassium phosphate pH 7.4, 37 °C
T4 construct: gene ARC; N-terminal His6 (pQE80), E. coli TP1000, Ni-NTA

crARC [5] = target: T4, crARC; assay: HPLC of benzamidine formed; details: 1 mM benzamidoxime, 3 mM dithionite, 2 mM benzylviologen, 100 mM potassium phosphate pH 7.4, 37 °C

T4 sequence (F8UWQ7 entry or part of it): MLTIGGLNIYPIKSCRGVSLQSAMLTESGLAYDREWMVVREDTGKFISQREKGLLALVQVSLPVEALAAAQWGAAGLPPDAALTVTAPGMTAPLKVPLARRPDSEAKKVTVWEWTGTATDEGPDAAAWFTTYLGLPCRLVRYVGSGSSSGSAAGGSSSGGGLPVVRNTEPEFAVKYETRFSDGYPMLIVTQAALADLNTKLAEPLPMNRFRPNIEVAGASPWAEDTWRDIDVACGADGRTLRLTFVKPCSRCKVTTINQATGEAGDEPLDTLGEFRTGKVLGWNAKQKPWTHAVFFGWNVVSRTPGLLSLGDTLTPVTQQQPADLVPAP
T3 sequence (F8UWQ7 entry or part of it F210A): as the sequence (F8UWQ7 entry or part of it) above, with F210A counted along it
T1 sequence (F8UWQ7 entry or part of it R276A): as the sequence (F8UWQ7 entry or part of it) above, with R276A counted along it
T2 sequence (F8UWQ7 entry or part of it D182A): as the sequence (F8UWQ7 entry or part of it) above, with D182A counted along it

SMILES	HPLC of adenine formed (crARC [1])	HPLC of adenine formed (crARC [2])	HPLC of adenine formed (crARC [3])	HPLC of adenine formed (crARC [4])	HPLC of benzamidine formed (crARC [5])
ONc1ncnc2[nH]cnc12 [HAP]	the mutants, D182A, F210A and R276A almost completely lost the mARC activity with dithionite	the mutants, D182A, F210A and R276A almost completely lost the mARC activity with dithionite	the mutants, D182A, F210A and R276A almost completely lost the mARC activity with dithionite	The crARC HAP reduction activity was determined with dithionite	–
NC(=NO)c1ccccc1 [benzamidoxime]	–	–	–	–	the crARC activity was assayed in vitro using benzamidoxime as a substrate
